From US10010545B1, “Antibiotic compositions and methods of use” (University of South Florida, priority 2013, dated 2018)

Experiments:
Enterococcus faecium = test: Growth testing against ESKAPE pathogens: Enterococcus faecium; assay type: cell-based; design: key: Growth; X: No Growth
Procedure: (§1) Six analogs (FIG. 2) of the ciprofloxacin-N thiolated β-lactam were successfully synthesized. All these compounds were then tested against ESKAPE pathogens for bioactivity. The ESKAPE pathogens are a collection of six deadly superbugs, Enterococcus faecium, Staphylococcus aureus, Klebsiella pneumoniae, Acinetobacter baumannii, Pseudomonas aeruginosa, and Enterobacter species. […] G denotes growth and X denotes no growth in the tables.

Staphylococcus aureus = test: Growth testing against ESKAPE pathogens: Staphylococcus aureus; assay type: cell-based; design: key to Activity against Staphylococcus aureus (growth observed): Growth; X: No Growth
Procedure: as §1

Klebesiella pneumonia = test: Growth testing against ESKAPE pathogens: Klebesiella pneumonia; assay type: cell-based, Klebsiella pneumoniae; design: key: Growth; X: No Growth
Procedure: as §1

Acinetobacter baumannii = test: Growth testing against ESKAPE pathogens: Acinetobacter baumannii; assay type: cell-based; design: key: Growth; X: No Growth
Procedure: as §1

Pseudomonas aeruginosa = test: Growth testing against ESKAPE pathogens: Pseudomonas aeruginosa; assay type: cell-based; design: key: Growth; X: No Growth
Procedure: as §1

MRSA = test: Growth inhibition against MRSA; assay type: cell-based; settings: at 1 μg/ml against MRSA
Procedure: as §1
Synthesis of dual drugs for the antibacterial purposes is a huge arena of research and for the first time this was done with the N-thiolated β-lactams. Though both N-acyl ciprofloxacins and N-thiolated β-lactams have been independently studied, the attempt to combine them via a cleavable covalent bond was never done. This study has elaborated on the synthesis of six such analogs.

CCC(C)SN1C(=O)C(OC(=O)c2cn(C3CC3)c3cc(N4CCN(C(C)=O)CC4)c(F)cc3c2=O)C1c1ccccc1Cl (stereo not drawn) [Lactam 125]
X: Activity against Staphylococcus aureus (growth observed) (Staphylococcus aureus; 1 μg/ml) | Activity against Staphylococcus aureus (growth observed) (Staphylococcus aureus; 2 μg/ml) | Activity against Staphylococcus aureus (growth observed) (Staphylococcus aureus; 3 μg/ml) | Activity against Staphylococcus aureus (growth observed) (Staphylococcus aureus; 4 μg/ml) | Activity against Staphylococcus aureus (growth observed) (Staphylococcus aureus; 5 μg/ml) | Activity against Staphylococcus aureus (growth observed) (Staphylococcus aureus; 6 μg/ml) | Activity against Staphylococcus aureus (growth observed) (Staphylococcus aureus; 7 μg/ml) | Activity against Staphylococcus aureus (growth observed) (Staphylococcus aureus; 8 μg/ml) | Activity against Staphylococcus aureus (growth observed) (Staphylococcus aureus; 9 μg/ml) | Activity against Staphylococcus aureus (growth observed) (Staphylococcus aureus; 10 μg/ml) | Activity against Staphylococcus aureus (growth observed) (Staphylococcus aureus; 25 μg/ml)
1 µg/mL: MIC (Staphylococcus aureus; against S. aureus)
G: Activity against Enterococcus faecium (growth observed) (Enterococcus faecium; 1 μg/ml) | Activity against Enterococcus faecium (growth observed) (Enterococcus faecium; 2 μg/ml) | Activity against Enterococcus faecium (growth observed) (Enterococcus faecium; 3 μg/ml) | Activity against Enterococcus faecium (growth observed) (Enterococcus faecium; 4 μg/ml) | Activity against Enterococcus faecium (growth observed) (Enterococcus faecium; 5 μg/ml) | Activity against Enterococcus faecium (growth observed) (Enterococcus faecium; 6 μg/ml) | Activity against Enterococcus faecium (growth observed) (Enterococcus faecium; 7 μg/ml) | Activity against Enterococcus faecium (growth observed) (Enterococcus faecium; 8 μg/ml) | Activity against Enterococcus faecium (growth observed) (Enterococcus faecium; 9 μg/ml) | Activity against Enterococcus faecium (growth observed) (Enterococcus faecium; 10 μg/ml) | Activity against Enterococcus faecium (growth observed) (Enterococcus faecium; 25 μg/ml) | Activity against Klebesiella pneumonia (growth observed) (Klebesiella pneumonia; 1 μg/ml) | Activity against Klebesiella pneumonia (growth observed) (Klebesiella pneumonia; 2 μg/ml) | Activity against Klebesiella pneumonia (growth observed) (Klebesiella pneumonia; 3 μg/ml) | Activity against Klebesiella pneumonia (growth observed) (Klebesiella pneumonia; 4 μg/ml) | Activity against Klebesiella pneumonia (growth observed) (Klebesiella pneumonia; 5 μg/ml) | Activity against Klebesiella pneumonia (growth observed) (Klebesiella pneumonia; 6 μg/ml) | Activity against Klebesiella pneumonia (growth observed) (Klebesiella pneumonia; 7 μg/ml) | Activity against Klebesiella pneumonia (growth observed) (Klebesiella pneumonia; 8 μg/ml) | Activity against Klebesiella pneumonia (growth observed) (Klebesiella pneumonia; 9 μg/ml) | Activity against Klebesiella pneumonia (growth observed) (Klebesiella pneumonia; 10 μg/ml) | Activity against Klebesiella pneumonia (growth observed) (Klebesiella pneumonia; 25 μg/ml) | Activity against Acinetobacter baumannii (growth observed) (Acinetobacter baumannii; 1 μg/ml) | Activity against Acinetobacter baumannii (growth observed) (Acinetobacter baumannii; 2 μg/ml) | Activity against Acinetobacter baumannii (growth observed) (Acinetobacter baumannii; 3 μg/ml) | Activity against Acinetobacter baumannii (growth observed) (Acinetobacter baumannii; 4 μg/ml) | Activity against Acinetobacter baumannii (growth observed) (Acinetobacter baumannii; 5 μg/ml) | Activity against Acinetobacter baumannii (growth observed) (Acinetobacter baumannii; 6 μg/ml) | Activity against Acinetobacter baumannii (growth observed) (Acinetobacter baumannii; 7 μg/ml) | Activity against Acinetobacter baumannii (growth observed) (Acinetobacter baumannii; 8 μg/ml) | Activity against Acinetobacter baumannii (growth observed) (Acinetobacter baumannii; 9 μg/ml) | Activity against Acinetobacter baumannii (growth observed) (Acinetobacter baumannii; 10 μg/ml) | Activity against Acinetobacter baumannii (growth observed) (Acinetobacter baumannii; 25 μg/ml) | Activity against Pseudomonas aeruginosa (growth observed) (Pseudomonas aeruginosa; 1 μg/ml) | Activity against Pseudomonas aeruginosa (growth observed) (Pseudomonas aeruginosa; 2 μg/ml) | Activity against Pseudomonas aeruginosa (growth observed) (Pseudomonas aeruginosa; 3 μg/ml) | Activity against Pseudomonas aeruginosa (growth observed) (Pseudomonas aeruginosa; 4 μg/ml) | Activity against Pseudomonas aeruginosa (growth observed) (Pseudomonas aeruginosa; 5 μg/ml) | Activity against Pseudomonas aeruginosa (growth observed) (Pseudomonas aeruginosa; 6 μg/ml) | Activity against Pseudomonas aeruginosa (growth observed) (Pseudomonas aeruginosa; 7 μg/ml) | Activity against Pseudomonas aeruginosa (growth observed) (Pseudomonas aeruginosa; 8 μg/ml) | Activity against Pseudomonas aeruginosa (growth observed) (Pseudomonas aeruginosa; 9 μg/ml) | Activity against Pseudomonas aeruginosa (growth observed) (Pseudomonas aeruginosa; 10 μg/ml) | Activity against Pseudomonas aeruginosa (growth observed) (Pseudomonas aeruginosa; 25 μg/ml)
complete growth inhibition: growth inhibition (MRSA)
